We go through eleven molecules from PubChem BioAssay (NCI).

Some test systems named below: OVCAR-4 ovarian; UACC-257 melanoma; OVCAR-5 ovarian; SF-539 CNS; OVCAR-8 ovarian; OVCAR-3 ovarian; IGROV1 ovarian; SK-OV-3 ovarian; SK-MEL-2 melanoma; SR leukemia.
Assay in all cases: NCI-60 cell line screen, 48 h

SMILES strings stand for the structures.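 Method: 48-hour compound exposure of cells in 96-well plates, five concentrations, linear interpolation of endpoints. GI50 is the concentration that inhibits growth by half. At the TGI there is no net growth.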

Consider `C=C(C)[C@@H]1CCC2=C[C@@H](OC2=O)[C@@H](C(=C)C)C(=O)/C=C(/C)C(=O)C1`, for which the GI50 was 71.6 µM with OVCAR-4 ovarian; 58.3 µM with UACC-257 melanoma; 70.6 µM in the experiment with OVCAR-5 ovarian; 36.5 µM in the experiment with SF-539 CNS; 49 µM in the experiment on OVCAR-8 ovarian; 22.6 µM in the experiment with OVCAR-3 ovarian. Further, in the experiment with IGROV1 ovarian, the GI50 is 40.9 µM. For the same molecule, the TGI in the experiment with OVCAR-4 ovarian is greater than 100 µM; in the experiment with UACC-257 melanoma it was greater than 100 µM; in the experiment on OVCAR-5 ovarian it was greater than 100 µM; with SF-539 CNS, 95.4 µM; with OVCAR-8 ovarian, greater than 100 µM; with OVCAR-3 ovarian it was 57.8 µM. The molecule further displayed a TGI in the experiment with IGROV1 ovarian greater than 100 µM.
Take `O=c1c2ccccc2c(=O)c2c1cc(Cl)c1[nH]c3c([nH]c12)c(Cl)cc1c(=O)c2ccccc2c(=O)c13`: the TGI with OVCAR-4 ovarian, in the experiment with UACC-257 melanoma, in the experiment with OVCAR-5 ovarian, with SF-539 CNS, in the experiment with SK-OV-3 ovarian and in the experiment with OVCAR-8 ovarian was greater than 100 µM throughout. The TGI with OVCAR-3 ovarian, in the experiment with IGROV1 ovarian and in the experiment on SK-MEL-2 melanoma was greater than 100 µM each time.
Consider `O=C(CCCc1ccccn1)c1ccccc1`, for which the TGI with OVCAR-4 ovarian, in the experiment with UACC-257 melanoma, with OVCAR-5 ovarian, in the experiment with SF-539 CNS, with SK-OV-3 ovarian and with OVCAR-8 ovarian was greater than 100 µM throughout. The TGI in the experiment on OVCAR-3 ovarian, with IGROV1 ovarian and with SK-MEL-2 melanoma was greater than 100 µM each time.
As to `Cc1cc(NS(=O)(=O)c2ccc(NC(=O)c3cccc4c(Nc5ccc(S(=O)(=O)Nc6cc(C)on6)cc5)c5ccccc5nc34)cc2)no1`, the TGI in the experiment on OVCAR-4 ovarian was greater than 100 µM; with UACC-257 melanoma, greater than 100 µM; with OVCAR-5 ovarian, greater than 100 µM; in the experiment on SF-539 CNS, 62 µM; in the experiment on SK-OV-3 ovarian, greater than 100 µM; with OVCAR-8 ovarian it was greater than 100 µM. Further, the TGI with OVCAR-3 ovarian was greater than 100 µM; with IGROV1 ovarian it was 76.5 µM; in the experiment on SK-MEL-2 melanoma, 78.4 µM.
Take `CN1c2ccccc2S(=O)(=O)n2c(COc3ccc(Cl)cc3)nnc21`: the TGI in the experiment on OVCAR-4 ovarian, with UACC-257 melanoma, with OVCAR-5 ovarian, in the experiment on SF-539 CNS, in the experiment with SK-OV-3 ovarian and with OVCAR-8 ovarian was greater than 100 µM each time. The TGI in the experiment with OVCAR-3 ovarian, with IGROV1 ovarian and with SK-MEL-2 melanoma was greater than 100 µM throughout.
As to `CCOC(=O)C1=C(C)NC2SC(=O)/C(=C\c3ccccc3)N2C1c1ccccc1` (stereo unspecified), the GI50 was 78.1 µM with OVCAR-4 ovarian; greater than 100 µM in the experiment on UACC-257 melanoma; greater than 100 µM with OVCAR-5 ovarian; greater than 100 µM with SF-539 CNS; greater than 100 µM in the experiment on SK-OV-3 ovarian; greater than 100 µM with OVCAR-8 ovarian. For the same molecule, the GI50 in the experiment on OVCAR-3 ovarian, with IGROV1 ovarian and in the experiment on SK-MEL-2 melanoma was greater than 100 µM each time. For the same molecule, the TGI in the experiment with OVCAR-4 ovarian, with UACC-257 melanoma, with OVCAR-5 ovarian, with SF-539 CNS, in the experiment with SK-OV-3 ovarian and with OVCAR-8 ovarian was greater than 100 µM in each case. For the same molecule, the TGI with OVCAR-3 ovarian, with IGROV1 ovarian and in the experiment with SK-MEL-2 melanoma was greater than 100 µM in each case.
On to `C/C(=C\CCc1ccoc1)CC/C=C(\C)CCCN1CCC(CO)CC1`, for which the GI50 in the experiment on OVCAR-4 ovarian was 3.28 µM; in the experiment on UACC-257 melanoma it was 2.16 µM; in the experiment on SR leukemia it was 1.66 µM; in the experiment on OVCAR-5 ovarian, 4.39 µM; in the experiment with SF-539 CNS, 2.39 µM; in the experiment with SK-OV-3 ovarian, 6.94 µM. The GI50 was 5.19 µM in the experiment on OVCAR-8 ovarian, 3.78 µM with OVCAR-3 ovarian and 5.33 µM in the experiment with IGROV1 ovarian. The TGI is 14.8 µM with OVCAR-4 ovarian; 5.12 µM in the experiment on UACC-257 melanoma; 4.29 µM with SR leukemia; 18.6 µM in the experiment with OVCAR-5 ovarian; 6.9 µM with SF-539 CNS; 20 µM with SK-OV-3 ovarian. The TGI came out at 19 µM in the experiment with OVCAR-8 ovarian, 13.7 µM in the experiment with OVCAR-3 ovarian and 19 µM in the experiment on IGROV1 ovarian.
Turning to `CC1=C([Se]CC(OC(=O)[C@@H](CO)NC(=O)OC(C)(C)C)C(=O)NC(C)(C)C)C(=O)c2ccccc2C1=O` (stereo partly specified), the GI50 was 1.23 µM in the experiment with OVCAR-4 ovarian; 1.74 µM in the experiment with UACC-257 melanoma; 2.1 µM in the experiment with OVCAR-5 ovarian; 1.57 µM with SF-539 CNS; 1.27 µM in the experiment with SK-OV-3 ovarian; 1.8 µM with OVCAR-3 ovarian. The GI50 in the experiment on IGROV1 ovarian is 1.66 µM; in the experiment on SK-MEL-2 melanoma, 2.2 µM. The TGI was found to be 2.49 µM in the experiment with OVCAR-4 ovarian; 3.23 µM with UACC-257 melanoma; 3.73 µM in the experiment with OVCAR-5 ovarian; 3.05 µM in the experiment with SF-539 CNS; 2.55 µM in the experiment on SK-OV-3 ovarian; 3.19 µM in the experiment on OVCAR-3 ovarian. Further, the figures for the TGI in the experiment on IGROV1 ovarian and in the experiment on SK-MEL-2 melanoma were 3.27 µM and 4.57 µM, respectively.
As to `CCN(CC)CCNC(=O)c1cccc2cc3ccccc3nc12`, the TGI in the experiment on OVCAR-5 ovarian was 27.7 µM; in the experiment on SF-539 CNS, 16.9 µM; in the experiment with SK-OV-3 ovarian, 37.9 µM; in the experiment with OVCAR-8 ovarian, greater than 100 µM; in the experiment with OVCAR-3 ovarian, 61.5 µM; with IGROV1 ovarian it was 60.7 µM. The same molecule returned a TGI with SK-MEL-2 melanoma of 19.9 µM.
Turning to `O=C(O)C#CCO`, the TGI with OVCAR-4 ovarian, with UACC-257 melanoma, in the experiment with OVCAR-5 ovarian, in the experiment with SF-539 CNS, with SK-OV-3 ovarian and in the experiment with OVCAR-8 ovarian was greater than 100 µM throughout. Besides, the TGI in the experiment on OVCAR-3 ovarian, with IGROV1 ovarian and in the experiment on SK-MEL-2 melanoma was greater than 100 µM throughout.
For the molecule `CCc1c(Cl)nc(Cl)nc1Cl`, the TGI in the experiment on UACC-257 melanoma was 2.79 µM; in the experiment on SR leukemia, greater than 100 µM; in the experiment on OVCAR-5 ovarian, 1.3 µM; in the experiment on SF-539 CNS it was 1.77 µM; in the experiment on SK-OV-3 ovarian it was 12.3 µM; in the experiment on OVCAR-8 ovarian, 44.4 µM. Further, the TGI in the experiment on OVCAR-3 ovarian was 0.374 µM; with IGROV1 ovarian it was 4.44 µM.
